Measured values reported in ChEMBL document CHEMBL1156829 (Proc Natl Acad Sci U S A, 2008).

How the values were obtained:
Plasmodium falciparum [1] = assay: NOVARTIS: Inhibition of Plasmodium falciparum 3D7 (drug-susceptible) proliferation in erythrocyte-based infection assay; format: functional, organism-based; settings: Plasmodium falciparum, 3D7
Plasmodium falciparum [2] = assay: NOVARTIS: Inhibition of Plasmodium falciparum W2 (drug-resistant) proliferation in erythrocyte-based infection assay; format: functional, organism-based; settings: Plasmodium falciparum, W2; read-out: EC50
[3] = NOVARTIS: Cytotoxicity against human hepatocellular carcinoma cell line (Huh7); format: toxicity, cell-based, Huh-7; settings: Huh7 cells (hepatocellular carcinoma cell line)

| Compound | EC50 (Plasmodium falciparum [1]) [nM] | EC50 (Plasmodium falciparum [2]) [nM] | CC50 [3] [nM] |
| --- | --- | --- | --- |
| COc1cc(-c2nc(-c3ccc(Sc4ccccc4)cc3)c(-c3ccccc3)[nH]2)cc(OC)c1O | 1280 | 1640 | 64300 |
| COc1cccc2cc(-c3nc(-c4ccccc4)cs3)c(=O)oc12 | > 611 | > 1250 | > 10000 |
| CC(=O)c1ccc(NC(=O)CSc2nnc3c4c(-c5ccc(F)cc5)csc4ncn23)cc1 | > 12500 | 23.9 | > 100000 |
| CCc1ccc(NC(=O)c2ccc(F)c(S(=O)(=O)NC3CCCC(C)C3C)c2)cc1 (stereo unspecified) | 1350 | 216 | 66000 |
| c1ccc2cc3c(Nc4ccc(N5CCCCC5)cc4)ccnc3cc2c1 | 743 | 1220 | 67700 |
| COC(=O)C1=C(C)N/C(=C\c2cc(C)n(-c3ccccc3C(F)(F)F)c2C)C1=O | 22.4 | 29.9 | > 10000 |
| COc1ccc2c(c1OC)C(=O)N1c3ccccc3N=C(c3ccc(I)cc3)CC21 (stereo unspecified) | 416 | 223 | > 100000 |
| Cc1nc([P+](c2ccccc2)(c2ccccc2)c2ccccc2)c(SCc2ccccc2)o1.[O-][Cl+3]([O-])([O-])[O-] | 456 | 621 | 68300 |
| O=c1c2c([nH]c3ccccc13)CCCC2 | 628 | 991 | > 100000 |
| CCCCCCOc1ccc(NC(=O)c2ccco2)cc1 | 1390 | 1200 | > 10000 |
| C[C@H](Nc1cncc(-c2ccc(Cl)cc2)n1)c1ccccc1 | 53.7 | 56.2 | 71000 |
| COc1cc(C(=O)Nc2ccc3nc4n(c(=O)c3c2)CCCCC4)cc(OC)c1OC | > 589 | 1880 | > 10000 |
| C=CCNCc1cc(-c2cc(OC)ccc2OC)ccc1O | 1100 | 840 | > 10000 |
| CN(C)c1ccc(N=Cc2ccc(N3CCOCC3)cc2)cc1 | 175 | 235 | > 10000 |
| CCOc1cc(C2CC(=O)NC3=C2C(=O)CC(c2ccc(OC)cc2)C3)cc(Cl)c1O (stereo unspecified) | 612 | 285 | > 100000 |
| CCCCNC(=O)c1ccc(OC2CCN(CC3CCCCC3)CC2)c(Cl)c1 | 639 | 270 | > 10000 |

| Compound | EC50 (Plasmodium falciparum [1]) [nM] | EC50 (Plasmodium falciparum [2]) [nM] | CC50 [3] [nM] |
| --- | --- | --- | --- |
| Cc1ccc(N=C2NC(=O)/C(=C\c3cc(C)n(-c4cccc([N+](=O)[O-])c4)c3C)S2)cc1 | 442 | 488 | > 10000 |
| CCCCCN(C(=O)Nc1ccccc1OC)C(C)c1nc2ccccc2c(=O)n1-c1ccccc1OCC (stereo unspecified) | 843 | 917 | > 10000 |
| CC1CCN(S(=O)(=O)c2ccc(C(=O)NCc3ccco3)cc2)CC1 | 894 | 1090 | > 100000 |
| CCCc1nc2ccc(NC(=O)NCC)cc2c(=O)n1Cc1ccc(-c2ccccc2)cc1 | 9050 | 6320 | > 100000 |
| Cc1ccc(N(C)C(=O)CCNS(=O)(=O)c2cc(Br)cnc2N)cc1 | 1920 | 224 | > 100000 |
| Cc1cccc(Nc2ccccc2C(=O)OCC(=O)N2CC(=O)Nc3ccccc32)c1C | 4710 | 3820 | 55100 |
| CC(=O)Nc1ccc(NC2=CC(=NS(=O)(=O)c3ccccc3)c3ccccc3C2=O)cc1 | 509 | 466 | 6880 |
| COc1ccccc1Cn1c(SCc2ccc(Cl)cc2)nc2ccc(Br)cc2c1=O | > 1160 | > 1050 | > 10000 |
| COc1ccc(CCN2C(=O)N(CC(C)C)C(=O)C23CCN(Cc2ccccc2O)CC3)cc1 | 225 | 93.1 | > 100000 |
| COc1ccc(C2CC(=O)C3=C(C2)NC(C)=C(C(=O)OC2CCCCC2)C3c2ccc([N+](=O)[O-])cc2)cc1OC (stereo unspecified) | 194 | 61.7 | > 100000 |
| CCCCCCN(C(=O)c1ccc(Cl)cc1)C(CC)c1nc2ccccc2c(=O)n1-c1ccccc1OC (stereo unspecified) | 952 | 607 | > 10000 |
| CCCCNCC(O)(c1ccc(Cl)cc1)c1ccc(Cl)cc1 | 720 | 99.7 | 38500 |
| CC(=O)O[C@H]1C(=O)[C@@]2(C)C([C@H](OC(=O)c3ccccc3)[C@]3(O)C[C@H](OC(=O)[C@@H](O)[C@@H](NC(=O)c4ccccc4)c4ccccc4)C(C)=C1C3(C)C)[C@]1(OC(C)=O)CO[C@@H]1C[C@@H]2O (stereo partly specified) | 658 | 152 | > 100000 |
| Cc1ccc(-c2cc3nc4c(c(O)n3n2)CCCC4)cc1 | 1600 | 2100 | > 100000 |
| CCCCN(C)CCCNC(=O)c1ccc(Cl)c(NC(=O)Nc2ccc(Cl)c(Cl)c2)c1 | 233 | 822 | 20300 |
| COc1cc(C(=O)NCCc2ccccn2)ccc1OC1CCN(CC(c2ccccc2)c2ccccc2)CC1 | 440 | 86.4 | 13000 |
